This passage reports IC50 results from patent US20150191469A1, “COMPOUNDS AND METHODS FOR TREATING HIV” (priority 2012, published 2015).

The subject of the experiment is HIV. As to the kind of experiment: MT4 assay: antiviral HIV activity (cell protection, cell titer glo readout at 96 hours). The conditions noted are these: Human immunodeficiency virus 1, MT4, 96 h, MT4 cells, cell titer glo readout at 96 hours, 10 point dose response; read-out: HIV MT4 Assay IC50. Type of experiment: cell-based. The procedure, abridged: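 MT-4 cells infected with HIV, with inhibition readout by CellTiter-Glo luminescence at 96 h relative to no-compound control. Cytotoxicity measured in parallel under the same conditions. IC50 from a 10-point, 3-4-fold dilution series spanning >1000-fold, fitted with a four-parameter logistic equation.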

With `Cc1nc2c(cc(C(=O)N3CCC(Oc4ccc(C#N)cc4)CC3)n2C)c(-c2cc(F)c3c(c2C)CCCO3)c1[C@H](OC(C)(C)C)C(=O)O` [Example 164], the IC50 (in general, the concentration that gives 50% inhibition) is 42.2 nM.

Turning to `Cc1nc2c(cc(C(=O)N3CCN(S(C)(=O)=O)CC3)n2C)c(-c2cc(F)c3c(c2C)CCCO3)c1[C@H](OC(C)(C)C)C(=O)O` [Example 180], the IC50 stood at 1920 nM.

For the compound `Cc1nc2c(cc(-c3nnc(-c4ccc5c(cnn5C)c4)s3)n2C)c(-c2cc(F)c3c(c2C)CCCO3)c1[C@H](OC(C)(C)C)C(=O)O` (atropisomer, axis not shown; (M)) [Example 356, (2S)(M)-2-(tert-butoxy)-2-(-4-(8-fluoro-5-methylchroman-6-yl)-1,6-dimethyl-2-(5-(1-methyl-1H-indazol-5-yl)-1,3,4-thiadiazol-2-yl)-1H-pyrrolo[2,3-b]pyridin-5-yl)acetic acid], the IC50 stood at 9.8 nM.

Regarding `Cc1nc2c(cc(C(=O)N3CCC4(CCCC4)CC3)n2C)c(-c2cc(F)c3c(c2C)CCCO3)c1[C@H](OC(C)(C)C)C(=O)O` [Example 193], the IC50 was 12.3 nM.
